From US20250282768A1 (Janssen Pharmaceutica NV, priority 2022, published 2025)

These compounds were tested on p-IKKa levels in L363 (NIK translocated multiple myeloma) cells (assay: Assay 2: Effect of compounds on p-IKKa levels in L363 (NIK translocated multiple myeloma) cells). Settings: Homo sapiens, L-363, 6 h, read-out: Assay 2 IC50 (nM), p-IKKa (Ser 176/180) in BAFF stimulated L363 cells with MG132, 6 h; average if tested more than once.
Format: cell-based
Description: Assay 2: Effect of Compounds on p-IKKa Levels in L363 (NIK Translocated Multiple Myeloma) Cells
All compounds tested were dissolved and serially diluted in DMSO, 1:3 dilution for 11 points in an Echo compatible plate. 100% DMSO was added to columns 12 and 24 of the plate to serve as high and low signal controls. This compound plate was used to spot 20 nL of compound or DMSO into a Greiner 384 well TC plate (781080). The final DMSO concentration was 0.3% (v/v) in cell assays. Human L363 cells (ATCC) were cultured in RPM11640 medium supplemented with GlutaMax, non-essential amino acids, sodium pyruvate and 10% fetal bovine serum. Cells were routinely maintained at densities of 0.2×10^6 cells per ml—2×10^6 cells per mL at 37° C. in a humidified 5% CO2 atmosphere incubator. Cells were passaged twice a week splitting back to obtain the low density. The day before the assay, cells were washed twice in HBSS (Hank's Balanced Salt Solution), resuspended in Dulbecco's Modified Eagle Medium (DMEM)+0.5% IgG and protease free BSA (Jackson Immuno Research Laboratories), +/−250 ng/ml recombinant human B-cell activating factor (BAFF/BLyS/TNFSF13B) and incubated overnight at 37° C. in a humidified 5% CO2 atmosphere (bulk stimulation with or without BAFF). The next day, the cell concentration was adjusted to 1×10^7 cells/ml in DMEM+/−250 ng/ml BAFF +/−10 μM MG132 and plated at 10 μl/well into compound or DMSO spotted 384 well TC plates. Seeded cells were incubated at 37° C. in a humidified 5% CO2 atmosphere for 6 h. After 6 h, the plates were removed from the incubator and cell lysis was achieved by the addition of 2.5 μl 5×lysis buffer containing protease and phosphatase inhibitors, followed by shaking on a plate shaker at room temperature for 15 min. At the end of this incubation, lysed cells were sequentially treated and incubated with acceptor and donor bead mixes according to the manufacturer's protocol for a 1 plate/2-incubation suspension cell assay (AlphaLISA SureFire Ultra p-IKKa (Ser 176/180) Assay Kit (Perkin Elmer). Plates were read using an EnVision Multilabel Plate Reader (Perkin Elmer). Within an experiment, a concentration response curve for each compound was run in duplicate. The signal obtained in the test wells was normalized using high signal (BAFF stimulated cells, DMSO, MG132) and low signal (unstimulated cells, DMSO) controls. To determine the IC50, a sigmoidal curve was fitted to the plot of % inhibition versus Log10 compound concentration.
CN1CC[C@@](O)(c2cc(-c3cccc(-c4ccnc(NC(c5cnn(C)c5)C(F)(F)F)n4)n3)no2)C1=O (mixture of isomers) [Example 96, (R)-3-Hydroxy-1-methyl-3-(3-(6-(2-(((RS)-2,2,2-trifluoro-1-(1-methyl-1H-pyrazol-4-yl)ethyl)amino)pyrimidin-4-yl)pyridin-2-yl)isoxazol-5-yl)pyrrolidin-2-one] gave an IC50 of 50 to 500 nM. In the case of CN1CC[C@@](O)(c2cc(-c3cccc(-c4ccnc(NC5CCN(C6CC6)C5)n4)n3)no2)C1=O (mixture of isomers) [Example 448, (3R)-3-(3-(6-(2-((1-Cyclopropylpyrrolidin-3-yl)amino)pyrimidin-4-yl)pyridin-2-yl)isoxazol-5-yl)-3-hydroxy-1-methylpyrrolidin-2-one], the IC50 is reported as greater than 500 nM. CN1CC[C@@](O)(c2cc(-c3cccc(-c4ccnc(NC5CCSC5)n4)n3)no2)C1=O (mixture of isomers) [Example 456, (3R)-3-Hydroxy-1-methyl-3-(3-(6-(2-((tetrahydrothiophen-3-yl)amino)pyrimidin-4-yl)pyridin-2-yl)isoxazol-5-yl)pyrrolidin-2-one] showed an IC50 of 50 to 500 nM. Work on CN1CC[C@@](O)(c2cc(-c3cccc(-c4ccnc(NC5COCC(F)(F)C5)n4)n3)no2)C1=O (mixture of isomers) [Example 459, (3R)-3-(3-(6-(2-((5,5-Difluorotetrahydro-2H-pyran-3-yl)amino)pyrimidin-4-yl)pyridin-2-yl)isoxazol-5-yl)-3-hydroxy-1-methylpyrrolidin-2-one] yielded an IC50 of 50 to 500 nM. COC(CNc1nccc(-c2cccc(-c3cc([C@]4(O)CCN(C)C4=O)on3)n2)n1)C(F)(F)F (mixture of isomers) [Example 461, (3R)-3-Hydroxy-1-methyl-3-(3-(6-(2-((3,3,3-trifluoro-2-methoxypropyl)amino)pyrimidin-4-yl)pyridin-2-yl)isoxazol-5-yl)pyrrolidin-2-one] showed an IC50 of 50 to 500 nM. CN1CC[C@@](O)(c2cc(-c3cccc(-c4ccnc(NC5COCC5(F)F)n4)n3)no2)C1=O (mixture of isomers) [Example 465, (3R)-3-(3-(6-(2-((4,4-Difluorotetrahydrofuran-3-yl)amino)pyrimidin-4-yl)pyridin-2-yl)isoxazol-5-yl)-3-hydroxy-1-methylpyrrolidin-2-one] gave an IC50 of 50 to 500 nM. With CN1CC[C@@](O)(c2cc(-c3cccc(-c4ccnc(NC5CCOc6ncccc65)n4)n3)no2)C1=O (mixture of isomers) [Example 472, (3R)-3-(3-(6-(2-((3,4-Dihydro-2H-pyrano[2,3-b]pyridin-4-yl)amino)pyrimidin-4-yl)pyridin-2-yl)isoxazol-5-yl)-3-hydroxy-1-methylpyrrolidin-2-one] the IC50 was 50 to 500 nM. CC1CCCCC1Nc1nccc(-c2cccc(-c3cc([C@]4(O)CCN(C)C4=O)on3)n2)n1 (mixture of isomers) [Example 341, (3R)-3-Hydroxy-1-methyl-3-(3-(6-(2-(((rac)-2-methylcyclohexyl)amino)pyrimidin-4-yl)pyridin-2-yl)isoxazol-5-yl)pyrrolidin-2-one] gave an IC50 of 50 to 500 nM. CC1CC(Nc2nccc(-c3cccc(-c4cc([C@]5(O)CCN(C)C5=O)on4)n3)n2)CO1 (mixture of isomers) [Example 343, (R)-3-Hydroxy-1-methyl-3-(3-(6-(2-(((rac)-5-methyltetrahydrofuran-3-yl)amino)pyrimidin-4-yl)pyridin-2-yl)isoxazol-5-yl)pyrrolidin-2-one] showed an IC50 of 50 to 500 nM. In the case of C[C@@H](Nc1nccc(-c2cccc(-c3cc([C@]4(O)CCN(C)C4=O)on3)n2)n1)c1ccnn1C (single isomer, unassigned) [Example 67], the IC50 is reported as 50 to 500 nM. C[C@H](Nc1nccc(-c2cccc(-c3cc([C@]4(O)CCN(C)C4=O)on3)n2)n1)c1ccnn1C (single isomer, unassigned) [Example 68] was tested, and the IC50 was 50 to 500 nM. Work on C[C@@H](Nc1nccc(-c2cccc(-c3cc([C@]4(O)CCN(C)C4=O)on3)n2)n1)c1cnn(C)c1 (single isomer, unassigned) [Example 69] yielded an IC50 of less than 50 nM. C[C@H](Nc1nccc(-c2cccc(-c3cc([C@]4(O)CCN(C)C4=O)on3)n2)n1)c1cnn(C)c1 (single isomer, unassigned) [Example 70] showed an IC50 greater than 500 nM. In the case of CN1CC[C@@](O)(c2cnn(-c3cccc(-c4ccnc(Nc5cnn(C)c5)n4)n3)c2)C1=O (single isomer, unassigned) [Example 76], the IC50 is reported as greater than 500 nM. In the case of CN1CC[C@](O)(c2cnn(-c3cccc(-c4ccnc(Nc5cnn(C)c5)n4)n3)c2)C1=O (single isomer, unassigned) [Example 77], the IC50 is reported as 50 to 500 nM. CN1CC[C@@](O)(c2cnc(-c3cccc(-c4ccnc(Nc5ccn(C)n5)n4)n3)s2)C1=O (single isomer, unassigned) [Example 78] gave an IC50 greater than 500 nM. With CN1CC[C@](O)(c2cnc(-c3cccc(-c4ccnc(Nc5ccn(C)n5)n4)n3)s2)C1=O (single isomer, unassigned) [Example 79] the IC50 was greater than 500 nM. For CN1CC[C@](O)(c2csc(-c3cccc(-c4ccnc(Nc5ccn(C)n5)n4)n3)n2)C1=O (single isomer, unassigned) [Example 80], the IC50 was greater than 500 nM. For CN1CC[C@@](O)(c2csc(-c3cccc(-c4ccnc(Nc5ccn(C)n5)n4)n3)n2)C1=O (single isomer, unassigned) [Example 81], the IC50 was greater than 500 nM. In the case of CN1CC[C@@](O)(c2ncc(-c3cccc(-c4ccnc(Nc5ccn(C)n5)n4)n3)s2)C1=O (single isomer, unassigned) [Example 82], the IC50 is reported as greater than 500 nM. Compound CN1CC[C@](O)(c2ncc(-c3cccc(-c4ccnc(Nc5ccn(C)n5)n4)n3)s2)C1=O (single isomer, unassigned) [Example 83] has an IC50 of 50 to 500 nM. CN1CC[C@](O)(c2cc(-c3cccc(-c4ccnc(Nc5ccn(C)n5)n4)n3)[nH]n2)C1=O (single isomer, unassigned) [Example 84] gave an IC50 greater than 500 nM. For CN1CC[C@@](O)(c2cc(-c3cccc(-c4ccnc(Nc5ccn(C)n5)n4)n3)[nH]n2)C1=O (single isomer, unassigned) [Example 85], the IC50 was 50 to 500 nM. For CN1CC[C@](O)(c2cn(-c3cccc(-c4ccnc(Nc5ccn(C)n5)n4)n3)cn2)C1=O (single isomer, unassigned) [Example 87], the IC50 was greater than 500 nM. For CN1CC[C@@](O)(c2cc(-c3cccc(-c4ccnc(Nc5cnn(C)c5Cl)n4)n3)n[nH]2)C1=O (single isomer, unassigned) [Example 104], the IC50 was greater than 500 nM. Work on CN1CC[C@](O)(c2cc(-c3cccc(-c4ccnc(Nc5cnn(C)c5Cl)n4)n3)n[nH]2)C1=O (single isomer, unassigned) [Example 105] yielded an IC50 of 50 to 500 nM. CN1CC[C@](O)(c2nccn2-c2cccc(-c3ccnc(Nc4cnn(C)c4Cl)n3)n2)C1=O (single isomer, unassigned) [Example 106, (*S)-3-(1-(6-(2-((5-Chloro-1-methyl-1H-pyrazol-4-yl)amino)pyrimidin-4-yl)pyridin-2-yl)-1H-imidazol-2-yl)-3-hydroxy-1-methylpyrrolidin-2-one] gave an IC50 greater than 500 nM. CN1CC[C@@](O)(c2cn(-c3cccc(-c4ccnc(Nc5cnn(C)c5Cl)n4)n3)cn2)C1=O (single isomer, unassigned) [Example 107] was tested, and the IC50 was greater than 500 nM. With CN1CC[C@](O)(c2cn(-c3cccc(-c4ccnc(Nc5cnn(C)c5Cl)n4)n3)cn2)C1=O (single isomer, unassigned) [Example 108] the IC50 was 50 to 500 nM. In the case of C[C@@H]1Cn2nc(Nc3nccc(-c4cccc(-c5cc([C@]6(O)CCN(C)C6=O)on5)n4)n3)cc2CO1 (single isomer, unassigned) [Example 114, (R)-3-Hydroxy-1-methyl-3-(3-(6-(2-(((*R)-6-methyl-6,7-dihydro-4H-pyrazolo[5,1-c][1,4]oxazin-2-yl)amino)pyrimidin-4-yl)pyridin-2-yl)isoxazol-5-yl)pyrrolidin-2-one], the IC50 is reported as less than 50 nM. In the case of C[C@H]1Cn2nc(Nc3nccc(-c4cccc(-c5cc([C@]6(O)CCN(C)C6=O)on5)n4)n3)cc2CO1 (single isomer, unassigned) [Example 115, (R)-3-Hydroxy-1-methyl-3-(3-(6-(2-(((*S)-6-methyl-6,7-dihydro-4H-pyrazolo[5,1-c][1,4]oxazin-2-yl)amino)pyrimidin-4-yl)pyridin-2-yl)isoxazol-5-yl)pyrrolidin-2-one], the IC50 is reported as 50 to 500 nM.
